Source: patent US20090076015A1, “Tricyclic Spiro Compound Comprising Acyl Group Bound to Nitrogen Atom in the Ring” (priority 2005, published 2009)

Columns and labels:
human FXa = target: T1, human FXa (Homo sapiens, UniProt P00742); assay: Measurement of the human FXa inhibitory action; format: biochemical; conditions: human FXa 0.019 U/ml, substrate S-2222 0.4 mM, 37° C., Tris-HCl buffer pH 7.5
T1 construct: purchased Enzyme Research Laboratories, Inc
Method: In vitro FXa inhibitory activity may be measured according to the method of Kettner et al. (Journal of Biological Chemistry, vol. 265, pages 18289 to 18297, 1990). To be more specific, human FXa (product of Enzyme Research Laboratories, Inc., 0.019 U/ml) is mixed with the specimens (of the compound of the present invention) prepared by diluting the compound of the invention with dimethylsulfoxide (DMSO) to different concentrations and synthetic substrate S-2222 (Chromogenix AB, 0.4 mM), and the mixtures are incubated at 37° C. in Tris-hydrochloric acid buffer (pH 7.5). The FXa inhibitory activity of the specimen is calculated by continuously observing the absorbance at 405 nm, and comparing the initial speed with the initial speed in the absence of the specimen.
It should be noted that the FXa inhibitory activity of the specimen is generally indicated as IC50.

human plasma = assay: Measurement of intrinsic coagulation time (APTT) in vitro; format: biochemical; conditions: APTT reagent, 37° C., calcium chloride 25 mM
Method: Activated partial thromboplastin time (APTT) is measured in the presence of the test compounds of the present invention diluted at various concentrations. To be more specific, each of the test compounds diluted with DMSO at various concentrations is mixed with human plasma and APTT reagent. The mixture is incubated at 37° C. for 2 minutes; calcium chloride (25 mM) is added to the mixture; and the coagulation time is thereafter measured. It should be noted that the anticoagulant activity of the test compound is described in terms of the concentration required to double the coagulation time for the case where no test compound is added.

T1 sequence (P00742 235-488 limits assumed): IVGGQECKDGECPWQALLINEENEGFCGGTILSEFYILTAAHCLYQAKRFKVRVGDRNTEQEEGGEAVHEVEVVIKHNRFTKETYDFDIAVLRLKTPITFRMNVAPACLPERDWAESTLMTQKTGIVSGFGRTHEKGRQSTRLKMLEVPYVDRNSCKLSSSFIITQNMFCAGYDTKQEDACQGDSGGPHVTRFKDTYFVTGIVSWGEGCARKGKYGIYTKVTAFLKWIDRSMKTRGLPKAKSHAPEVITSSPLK
T1 sequence (P00742 41-179 partner limits assumed): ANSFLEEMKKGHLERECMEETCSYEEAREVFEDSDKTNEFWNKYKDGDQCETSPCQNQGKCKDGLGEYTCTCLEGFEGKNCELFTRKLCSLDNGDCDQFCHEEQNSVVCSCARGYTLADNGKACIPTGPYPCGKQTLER

| Structure (SMILES) | IC50 (human FXa) [nM] | Concentration when APTT was doubled (human plasma) [µM] |
| --- | --- | --- |
| CC(=O)NCC12CN(S(=O)(=O)c3cc4cc(Cl)ccc4[nH]3)CC(=O)N1CC1(CCN(C(C)=O)CC1)N2C (single isomer, unassigned) [Example 21, optically active 1′-acetyl-8a-(acetylaminomethyl)-7-[(5-chloro-1H-indol-2-yl)sulfonyl]tetrahydro-1-methyl-spiro[imidazo[1,2-a]pyrazine-2(3H),4′-piperidin]-5(1H)-one] | 5.6 | 0.36 |
| CC(=O)N1CCC2(CC1)CN1C(=O)CN(S(=O)(=O)c3cc4cc(Cl)ccc4[nH]3)CC1(CN(C)C)O2 (single isomer, unassigned) [Example 60, optically active 1′-acetyl-7-[(5-chloro-1H-indol-2-yl)sulfonyl]tetrahydro-8a-(N,N-dimethylaminomethyl)-spiro[5H-oxazolo[3,2-a]pyrazine-2(3H),4′-piperidin]-5-one] | 4.5 | – |
| CCOC(=O)CN(C)CC12CN(S(=O)(=O)c3cc4cc(Cl)ccc4[nH]3)C[C@@H](O)N1CC1(CCN(C(=O)CC)CC1)O2 (single isomer, unassigned) [Example 64, optically active 7-[(5-chloro-1H-indol-2-yl)sulfonyl]tetrahydro-8a-[(N-ethoxycarboxymethyl)-N-methylaminomethyl]-1′-propanoyl-spiro[5H-oxazolo[3,2-a]pyrazine-2(3H),4′-piperidin]-5-one] | – | 0.89 |
| CCC(=O)N1CCC2(CC1)CN1C(=O)CN(S(=O)(=O)c3cc4cc(Cl)ccc4[nH]3)CC1(CN(C)CC(=O)O)O2 (single isomer, unassigned) [Example 66, optically active N-[[7-[(5-chloro-1H-indol-2-yl)sulfonyl]tetrahydro-5-oxo-1′-propanoyl-spiro[5H-oxazolo[3,2-a]pyrazine-2(3H),4′-piperidin]-8a-yl]methyl]-N-methylglycine] | 1.6 | – |
| COCC12CN(S(=O)(=O)c3cc4cc(Cl)ccc4[nH]3)CC(=O)N1CC1(CCN(C(C)=O)CC1)N2C (single isomer, unassigned; (-)) [Example 1, (−)-1′-acetyl-7-[(5-chloro-1H-indol-2-yl)sulfonyl]tetrahydro-8a-(methoxymethyl)-1-methyl-spiro[imidazo[1,2-a]pyrazine-2(3H),4′-piperidin]-5(1H)-one] | 5.7 | – |
| CCC(=O)N1CCC2(CC1)CN1C(=O)CN(S(=O)(=O)c3cc4cc(Cl)ccc4[nH]3)CC1(COC)N2C (single isomer, unassigned; (-)) [Example 2, (−)-7-[(5-chloro-1H-indol-2-yl)sulfonyl]tetrahydro-8a-(methoxymethyl)-1-methyl-1′-propanoyl-spiro[imidazo[1,2-a]pyrazine-2(3H),4′-piperidin]-5(1H)-one] | 1.8 | – |
| COCC12CN(S(=O)(=O)c3cc4cc(Cl)ccc4[nH]3)CC(=O)N1CC1(CCN(C(=O)C3CCC3)CC1)N2C (single isomer, unassigned; (-)) [Example 3, (−)-7-[(5-chloro-1H-indol-2-yl)sulfonyl]-1′-cyclobutanecarbonyl-tetrahydro-8a-(methoxymethyl)-1-methyl-spiro[imidazo[1,2-a]pyrazine-2(3H),4′-piperidin]-5(1H)-one] | 1.3 | – |
| C=CC(=O)N1CCC2(CC1)CN1C(=O)CN(S(=O)(=O)c3cc4cc(Cl)ccc4[nH]3)CC1(COC)N2C (single isomer, unassigned; (-)) [Example 4, (−)-7-[(5-chloro-1H-indol-2-yl)sulfonyl]tetrahydro-8a-(methoxymethyl)-1-methyl-1′-propenoyl-spiro[imidazo[1,2-a]pyrazine-2(3H),4′-piperidin]-5(1H)-one] | – | 0.5 |
| C#CC(=O)N1CCC2(CC1)CN1C(=O)CN(S(=O)(=O)c3cc4cc(Cl)ccc4[nH]3)CC1(COC)N2C (single isomer, unassigned; (-)) [Example 13, (−)-7-[(5-chloro-1H-indol-2-yl)sulfonyl]tetrahydro-8a-(methoxymethyl)-1-methyl-1′-propinoyl-spiro[imidazo[1,2-a]pyrazine-2(3H),4′-piperidin]-5(1H)-one] | 2.6 | – |
| COCC12CN(S(=O)(=O)/C=C/c3ccc(Cl)s3)CC(=O)N1CC1(CCN(C(C)=O)CC1)N2C (single isomer, unassigned; (-)) [Example 14, (−)-1′-acetyl-7-[[(1E)-2-(5-chloro-2-thienyl)ethenyl]sulfonyl]tetrahydro-8a-(methoxymethyl)-1-methyl-spiro[imidazo[1,2-a]pyrazine-2(3H),4′-piperidin]-5(1H)-one] | – | 0.64 |
| C#CC(=O)N1CCC2(CC1)CN1C(=O)CN(S(=O)(=O)c3cc4ccc(Cl)cc4s3)CC1(COC)N2C (single isomer, unassigned; (-)) [Example 17, (−)-7-[(6-chloro-benzo[b]thiophen-2-yl)sulfonyl]tetrahydro-8a-(methoxymethyl)-1-methyl-1′-propinoyl-spiro[imidazo[1,2-a]pyrazine-2(3H),4′-piperidin]-5(1H)-one] | 6.5 | 0.87 |
| CCN1C2(CCN(C(C)=O)CC2)CN2C(=O)CN(S(=O)(=O)c3cc4cc(Cl)ccc4[nH]3)CC21COC (single isomer, unassigned; (-)) [Example 23, (−)-1′-acetyl-7-[(5-chloro-1H-indol-2-yl)sulfonyl]tetrahydro-1-ethyl-8a-(methoxymethyl)-spiro[imidazo[1,2-a]pyrazine-2(3H),4′-piperidin]-5(1H)-one] | – | 0.19 |
| CCC(=O)N1CCC2(CC1)CN1C(=O)CN(S(=O)(=O)c3cc4cc(Cl)ccc4[nH]3)CC1(COC)N2 (single isomer, unassigned; (-)) [Example 26, (−)-7-[(5-chloro-1H-indol-2-yl)sulfonyl]tetrahydro-8a-(methoxymethyl)-1′-propanoyl-spiro[imidazo[1,2-a]pyrazine-2(3H),4′-piperidin]-5(1H)-one] | 5.7 | 0.44 |
| COCC12CN(S(=O)(=O)c3cc4cc(Cl)ccc4[nH]3)CC(=O)N1CC1(CCN(C(C)=O)CC1)O2 (single isomer, unassigned; (-)) [Example 34, (−)-1′-acetyl-7-[(5-chloro-1H-indol-2-yl)sulfonyl]tetrahydro-8a-(methoxymethyl)-spiro[5H-oxazolo[3,2-a]pyrazine-2(3H),4′-piperidin]-5-one] | 8.2 | – |
| COCC12CN(S(=O)(=O)/C=C/c3ccc(Cl)s3)CC(=O)N1CC1(CCN(C(C)=O)CC1)O2 (single isomer, unassigned; (-)) [Example 36, (−)-1′-acetyl-7-[[(1E)-2-(5-chloro-2-thienyl)ethenyl]sulfonyl]tetrahydro-8a-(methoxymethyl)-spiro[5H-oxazolo[3,2-a]pyrazine-2(3H),4′-piperidin]-5-one] | – | 0.83 |
| O=C(C1CC1)N1CCC2(CC1)CN1C(=O)CN(S(=O)(=O)c3cc4cc(Cl)ccc4[nH]3)CC1(CO)O2 (single isomer, unassigned; (-)) [Example 52, (−)-7-[(5-chloro-1H-indol-2-yl)sulfonyl]tetrahydro-1′-cyclopropanoyl-8a-(hydroxymethyl)-spiro[5H-oxazolo[3,2-a]pyrazine-2(3H),4′-piperidin]-5-one] | – | 0.57 |
| COC(=O)COCC12CN(S(=O)(=O)c3cc4cc(Cl)ccc4[nH]3)CC(=O)N1CC1(CCN(C(C)=O)CC1)O2 (single isomer, unassigned; (-)) [Example 54, (−)-1′-acetyl-7-[(5-chloro-1H-indol-2-yl)sulfonyl]tetrahydro-8a-(methoxycarbonylmethoxymethyl)-spiro[5H-oxazolo[3,2-a]pyrazine-2(3H),4′-piperidin]-5-one] | – | 0.4 |
| CC(=O)N1CCC2(CC1)CN1C(=O)CN(S(=O)(=O)c3cc4cc(Cl)ccc4[nH]3)CC1(COc1ncccn1)O2 (single isomer, unassigned; (-)) [Example 56, (−)-1′-acetyl-7-[(5-chloro-1H-indol-2-yl)sulfonyl]tetrahydro-8a-(2-pyrimidyloxymethyl)-spiro[5H-oxazolo[3,2-a]pyrazine-2(3H),4′-piperidin]-5-one] | – | 0.5 |
